# Measurements taken from ChEMBL document CHEMBL1201861, “Genomics of Drug Sensitity in Cancer screening data, Wellcome Trust Sanger Institute”.
# What was measured:
# CP50-MEL-B = experiment: cells; assay type: functional, cell-based; conditions: Homo sapiens;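 further: growth inhibition of the human cell line, measured with a cell viability read-out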
# Description: SANGER: Inhibition of human CP50-MEL-B cell growth in a cell viability assay.
# Ca-Ski = experiment: cells; assay type: functional, cell-based; conditions: Homo sapiens;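 further: cell viability assay measuring inhibition of Ca-Ski cell growth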
# Description: SANGER: Inhibition of human Ca-Ski cell growth in a cell viability assay.
# Ca9-22 = experiment: cells; assay type: functional, cell-based; conditions: Homo sapiens;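 further: growth inhibition of Ca9-22 cells, read out with a cell viability assay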
# Description: SANGER: Inhibition of human Ca9-22 cell growth in a cell viability assay.
# DG-75 = experiment: cells; assay type: functional, cell-based; conditions: Homo sapiens;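 further: growth inhibition of DG-75 cells, read out with a cell viability assay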
# Description: SANGER: Inhibition of human DG-75 cell growth in a cell viability assay.
# DMS-153 = experiment: cells; assay type: functional, cell-based; conditions: Homo sapiens
# Description: SANGER: Inhibition of human DMS-153 cell growth in a cell viability assay.
# DU-145 = experiment: cells; assay type: functional, cell-based; conditions: Homo sapiens
# Description: SANGER: Inhibition of human DU-145 cell growth in a cell viability assay.
# Detroit 562 = experiment: cells; assay type: functional, cell-based; conditions: Homo sapiens;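 further: growth inhibition of human Detroit 562 cells, read out by a cell viability assay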
# Description: SANGER: Inhibition of human Detroit562 cell growth in a cell viability assay.
# EFM-19 = experiment: cells; assay type: functional, cell-based; conditions: Homo sapiens;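 further: growth inhibition of human EFM-19 cells, measured in a cell viability assay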
# Description: SANGER: Inhibition of human EFM-19 cell growth in a cell viability assay.
# EFO-21 = experiment: cells; assay type: functional, cell-based; conditions: Homo sapiens;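 further: growth inhibition of EFO-21 cells measured with a viability assay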
# Description: SANGER: Inhibition of human EFO-21 cell growth in a cell viability assay.
# EHEB = experiment: cells; assay type: functional, cell-based; conditions: Homo sapiens;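 further: growth inhibition of human EHEB cells, read out with a cell viability assay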
# Description: SANGER: Inhibition of human EHEB cell growth in a cell viability assay.
# FTC-133 = experiment: cells; assay type: functional, cell-based; conditions: Homo sapiens
# GP5d = experiment: cells; assay type: functional, cell-based; conditions: Homo sapiens;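 further: growth inhibition of human GP5d cells, read out with a cell viability assay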
# Description: SANGER: Inhibition of human GP5d cell growth in a cell viability assay.
# HCC1395 = experiment: cells; assay type: functional, cell-based; conditions: Homo sapiens;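 further: growth inhibition of HCC1395 cells, read out by a cell viability assay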
# Description: SANGER: Inhibition of human HCC1395 cell growth in a cell viability assay.
# HCC 2998 = experiment: cells; assay type: functional, cell-based; conditions: Homo sapiens;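 further: growth inhibition of human HCC2998 cells, measured with a cell viability read-out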
# Description: SANGER: Inhibition of human HCC2998 cell growth in a cell viability assay.
# HCT-15 = experiment: cells; assay type: functional, cell-based; conditions: Homo sapiens;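 further: cell viability readout, IC50 reflecting suppression of HCT-15 cell growth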
# Description: SANGER: Inhibition of human HCT-15 cell growth in a cell viability assay.
# HEC-1 = experiment: cells; assay type: functional, cell-based; conditions: Homo sapiens;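 further: growth inhibition of the cell line, read out with a cell viability assay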
# Description: SANGER: Inhibition of human HEC-1 cell growth in a cell viability assay.
# HPAF-II = experiment: cells; assay type: functional, cell-based; conditions: Homo sapiens;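 further: growth inhibition of HPAF-II cells, read out with a cell viability assay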
# Description: SANGER: Inhibition of human HPAF-II cell growth in a cell viability assay.
# HT-1080 = experiment: cells; assay type: functional, cell-based; conditions: Homo sapiens
# Description: SANGER: Inhibition of human HT-1080 cell growth in a cell viability assay.
# HuCCT-1 = experiment: cells; assay type: functional, cell-based, HuCCT1; conditions: Homo sapiens;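 further: growth inhibition of HuCCT-1 cells, read out by a cell viability assay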
# Description: SANGER: Inhibition of human HuCCT1 cell growth in a cell viability assay.
# IGROV-1 = experiment: cells; assay type: functional, cell-based; conditions: Homo sapiens;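 further: reduction of IGROV-1 cell growth, read out with a viability assay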
# Description: SANGER: Inhibition of human IGROV-1 cell growth in a cell viability assay.
# KMS-12-PE = experiment: cells; assay type: functional, cell-based; conditions: Homo sapiens;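 further: growth inhibition of human KMS-12-PE cells, measured with a cell viability assay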
# Description: SANGER: Inhibition of human KMS-12-PE cell growth in a cell viability assay.
# KP-N-YN = experiment: cells; assay type: functional, cell-based; conditions: Homo sapiens;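 further: growth inhibition of KP-N-YN cells, read out with a cell viability assay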
# Description: SANGER: Inhibition of human KP-N-YN cell growth in a cell viability assay.
# LB647-SCLC = experiment: cells; assay type: functional, cell-based; conditions: Homo sapiens;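 further: cell growth inhibition, read out by a viability assay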
# Description: SANGER: Inhibition of human LB647-SCLC cell growth in a cell viability assay.
# LB996-RCC = experiment: cells; assay type: functional, cell-based; conditions: Homo sapiens
# Description: SANGER: Inhibition of human LB996-RCC cell growth in a cell viability assay.
# LU-165 = experiment: cells; assay type: functional, cell-based; conditions: Homo sapiens
# Description: SANGER: Inhibition of human LU-165 cell growth in a cell viability assay.
# LU-99A = experiment: cells; assay type: functional, cell-based; conditions: Homo sapiens;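 further: growth inhibition of LU-99A cells, read out with a cell viability assay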
# Description: SANGER: Inhibition of human LU-99A cell growth in a cell viability assay.
# MCF7 = experiment: cells; assay type: functional, cell-based; conditions: Homo sapiens;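 further: growth inhibition of human MCF7 cells, read out with a cell viability assay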
# Description: SANGER: Inhibition of human MCF7 cell growth in a cell viability assay.
# ME-180 = experiment: cells; assay type: functional, cell-based; conditions: Homo sapiens;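 further: cell viability assay measuring growth inhibition of ME-180 cells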
# Description: SANGER: Inhibition of human ME-180 cell growth in a cell viability assay.
# MEL-HO = experiment: cells; assay type: functional, cell-based; conditions: Homo sapiens
# Description: SANGER: Inhibition of human MEL-HO cell growth in a cell viability assay.
# NCI-H1573 = experiment: cells; assay type: functional, cell-based; conditions: Homo sapiens;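 further: growth inhibition of NCI-H1573 cells, read out with a cell viability assay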
# Description: SANGER: Inhibition of human NCI-H1573 cell growth in a cell viability assay.
# NCI-H1703 = experiment: cells; assay type: functional, cell-based; conditions: Homo sapiens;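 further: growth inhibition of NCI-H1703 cells, read out via a cell viability assay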
# Description: SANGER: Inhibition of human NCI-H1703 cell growth in a cell viability assay.
# NCI-H1792 = experiment: cells; assay type: functional, cell-based; conditions: Homo sapiens;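 further: growth inhibition of human NCI-H1792 cells, read out as cell viability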
# Description: SANGER: Inhibition of human NCI-H1792 cell growth in a cell viability assay.
# NCI-H2081 = experiment: cells; assay type: functional, cell-based; conditions: Homo sapiens;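 further: growth inhibition of human NCI-H2081 cells, read out with a cell viability assay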
# Description: SANGER: Inhibition of human NCI-H2081 cell growth in a cell viability assay.
# NCI-H2122 = experiment: cells; assay type: functional, cell-based; conditions: Homo sapiens;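 further: growth inhibition of the cells, read out with a cell viability assay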
# Description: SANGER: Inhibition of human NCI-H2122 cell growth in a cell viability assay.
# NCI-H2171 = experiment: cells; assay type: functional, cell-based; conditions: Homo sapiens;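 further: growth inhibition of human NCI-H2171 cells, read out by a cell viability assay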
# Description: SANGER: Inhibition of human NCI-H2171 cell growth in a cell viability assay.
# NCI-H2196 = experiment: cells; assay type: functional, cell-based; conditions: Homo sapiens;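 further: cell viability assay used as the readout of growth inhibition in NCI-H2196 cells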
# Description: SANGER: Inhibition of human NCI-H2196 cell growth in a cell viability assay.
# NCI-H2342 = experiment: cells; assay type: functional, cell-based; conditions: Homo sapiens;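 further: growth inhibition of the cancer cell line, determined with a cell viability assay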
# Description: SANGER: Inhibition of human NCI-H2342 cell growth in a cell viability assay.
# NCI-H727 = experiment: cells; assay type: functional, cell-based; conditions: Homo sapiens;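 further: growth inhibition of human NCI-H727 cells, read out with a cell viability assay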
# Description: SANGER: Inhibition of human NCI-H727 cell growth in a cell viability assay.
# NCI-H748 = experiment: cells; assay type: functional, cell-based; conditions: Homo sapiens;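 further: growth inhibition of NCI-H748 cells, measured by a cell viability assay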
# Description: SANGER: Inhibition of human NCI-H748 cell growth in a cell viability assay.
# OVCAR-3 = experiment: cells; assay type: functional, cell-based; conditions: Homo sapiens;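 further: growth inhibition of human OVCAR-3 cells, determined by a cell viability assay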
# Description: SANGER: Inhibition of human OVCAR-3 cell growth in a cell viability assay.
# PANC-08-13 = experiment: cells; assay type: functional, cell-based; conditions: Homo sapiens
# Description: SANGER: Inhibition of human PANC-08-13 cell growth in a cell viability assay.
# RCM-1 = experiment: cells; assay type: functional, cell-based; conditions: Homo sapiens;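 further: growth inhibition of the RCM-1 line, determined with a cell viability readout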
# Description: SANGER: Inhibition of human RCM-1 cell growth in a cell viability assay.
# REH = experiment: cells; assay type: functional, cell-based; conditions: Homo sapiens;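 further: growth inhibition of REH cells determined with a cell viability read-out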
# Description: SANGER: Inhibition of human REH cell growth in a cell viability assay.
# RPMI 8402 = experiment: SANGER: Inhibition of human RPMI-8402 cell growth in a cell viability assay.; assay type: functional, cell-based
# SBC-5 = experiment: cells; assay type: functional, cell-based; conditions: Homo sapiens;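 further: cell viability assay read-out, IC50 is the concentration that inhibits growth of the cells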
# Description: SANGER: Inhibition of human SBC-5 cell growth in a cell viability assay.
# SIG-M5 = experiment: cells; assay type: functional, cell-based; conditions: Homo sapiens;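 further: cell viability assay read-out, measuring how strongly growth of cultured human SIG-M5 cells is inhibited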
# Description: SANGER: Inhibition of human SIG-M5 cell growth in a cell viability assay.
# SK-MM-2 = experiment: cells; assay type: functional, cell-based; conditions: Homo sapiens;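 further: growth inhibition of human SK-MM-2 cells, read out with a cell viability assay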
# Description: SANGER: Inhibition of human SK-MM-2 cell growth in a cell viability assay.
# SNU-423 = experiment: cells; assay type: functional, cell-based; conditions: Homo sapiens
# Description: SANGER: Inhibition of human SNU-423 cell growth in a cell viability assay.
# SW-620 = experiment: cells; assay type: functional, cell-based; conditions: Homo sapiens;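 further: growth inhibition of human SW-620 cells, measured by a cell viability assay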
# Description: SANGER: Inhibition of human SW620 cell growth in a cell viability assay.
# 8305C = experiment: cells; assay type: functional, cell-based; conditions: Homo sapiens
# Description: SANGER: Inhibition of human 8305C cell growth in a cell viability assay.
# A253 cell line = experiment: cells; assay type: functional, cell-based; conditions: Homo sapiens;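 further: growth inhibition of A253 cells, read out with a cell viability assay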
# Description: SANGER: Inhibition of human A253 cell growth in a cell viability assay.
# BPH-1 = experiment: cells; assay type: functional, cell-based; conditions: Homo sapiens;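 further: cell viability assay measuring growth inhibition of human BPH-1 cells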
# Description: SANGER: Inhibition of human BPH-1 cell growth in a cell viability assay.
# BT-20 = experiment: cells; assay type: functional, cell-based; conditions: Homo sapiens;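 further: cell viability assay measuring suppression of growth in human BT-20 cells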
# Description: SANGER: Inhibition of human BT-20 cell growth in a cell viability assay.
# CAL-120 = experiment: cells; assay type: functional, cell-based; conditions: Homo sapiens;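 further: cell growth inhibition, read out as cell viability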
# Description: SANGER: Inhibition of human CAL-120 cell growth in a cell viability assay.
# TE-441-T = experiment: cells; assay type: functional, cell-based; conditions: Homo sapiens
# Description: SANGER: Inhibition of human TE-441-T cell growth in a cell viability assay.
# U-698-M = experiment: cells; assay type: functional, cell-based; conditions: Homo sapiens
# Description: SANGER: Inhibition of human U-698-M cell growth in a cell viability assay.
# U-251 = experiment: cells; assay type: functional, cell-based; conditions: Homo sapiens;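 further: growth inhibition of human U-251 cells, read out through a cell viability assay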
# Description: SANGER: Inhibition of human U251 cell growth in a cell viability assay.
# WSU-NHL = experiment: cells; assay type: functional, cell-based; conditions: Homo sapiens;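 further: growth inhibition of human WSU-NHL cells, read out with a cell viability assay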
# Description: SANGER: Inhibition of human WSU-NHL cell growth in a cell viability assay.
# YAPC = experiment: cells; assay type: functional, cell-based; conditions: Homo sapiens;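 further: growth inhibition of YAPC cells, measured with a cell viability assay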
# Description: SANGER: Inhibition of human YAPC cell growth in a cell viability assay.
# CAPAN-1 = experiment: cells; assay type: functional, cell-based; conditions: Homo sapiens;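 further: growth suppression of CAPAN-1 cells, read out by a cell viability assay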
# Description: SANGER: Inhibition of human CAPAN-1 cell growth in a cell viability assay.
# CHL-1 = experiment: cells; assay type: functional, cell-based; conditions: Homo sapiens;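 further: cell growth inhibition, read out with a cell viability assay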
# Description: SANGER: Inhibition of human CHL-1 cell growth in a cell viability assay.
# CHP-126 = experiment: cells; assay type: functional, cell-based; conditions: Homo sapiens
# Description: SANGER: Inhibition of human CHP-126 cell growth in a cell viability assay.
# CHP-212 = experiment: cells; assay type: functional, cell-based; conditions: Homo sapiens
# Description: SANGER: Inhibition of human CHP-212 cell growth in a cell viability assay.
# COLO-680N = experiment: cells; assay type: functional, cell-based; conditions: Homo sapiens
# Description: SANGER: Inhibition of human COLO-680N cell growth in a cell viability assay.
smiles,measurement,setting,value
C/C=C(/C)C(=O)O[C@H]1C(C)=C2[C@H]([C@@H]1OC(=O)CCCCCCC)[C@@](C)(OC(C)=O)C[C@H](OC(=O)CCC)[C@@]1(O)[C@H]2OC(=O)[C@@]1(C)O [THAPSIGARGIN],IC50,CP50-MEL-B,0.0111 µM
same,IC50,Ca-Ski,0.0322 µM
same,IC50,Ca9-22,0.0228 µM
same,IC50,DG-75,> 0.512 µM
same,IC50,DMS-153,0.0199 µM
same,IC50,DU-145,0.00863 µM
same,IC50,Detroit 562,0.00252 µM
same,IC50,EFM-19,> 0.512 µM
same,IC50,EFO-21,0.0164 µM
same,IC50,EHEB,0.0941 µM
same,IC50,FTC-133,> 0.512 µM
same,IC50,GP5d,0.0417 µM
same,IC50,HCC1395,0.00315 µM
same,IC50,HCC 2998,< 0.002 µM
same,IC50,HCT-15,0.155 µM
same,IC50,HEC-1,0.0404 µM
same,IC50,HPAF-II,0.0619 µM
same,IC50,HT-1080,< 0.002 µM
same,IC50,HuCCT-1,0.00433 µM
same,IC50,IGROV-1,< 0.002 µM
same,IC50,KMS-12-PE,0.297 µM
same,IC50,KP-N-YN,0.027 µM
same,IC50,LB647-SCLC,0.00486 µM
same,IC50,LB996-RCC,0.0313 µM
same,IC50,LU-165,> 0.512 µM
same,IC50,LU-99A,0.00136 µM
same,IC50,MCF7,< 0.002 µM
same,IC50,ME-180,> 0.512 µM
same,IC50,MEL-HO,0.0019 µM
same,IC50,NCI-H1573,0.00162 µM
same,IC50,NCI-H1703,0.0101 µM
same,IC50,NCI-H1792,0.000526 µM
same,IC50,NCI-H2081,> 0.512 µM
same,IC50,NCI-H2122,0.00449 µM
same,IC50,NCI-H2171,0.0125 µM
same,IC50,NCI-H2196,> 0.512 µM
same,IC50,NCI-H2342,< 0.002 µM
same,IC50,NCI-H727,0.00836 µM
same,IC50,NCI-H748,0.0313 µM
same,IC50,OVCAR-3,< 0.002 µM
same,IC50,PANC-08-13,0.0238 µM
same,IC50,RCM-1,0.122 µM
same,IC50,REH,0.00639 µM
same,IC50,RPMI 8402,0.00523 µM
same,IC50,SBC-5,0.00808 µM
same,IC50,SIG-M5,< 0.002 µM
same,IC50,SK-MM-2,0.0456 µM
same,IC50,SNU-423,< 0.002 µM
same,IC50,SW-620,0.00302 µM
same,IC50,8305C,0.0027 µM
same,IC50,A253 cell line,0.00173 µM
same,IC50,BPH-1,0.0006 µM
same,IC50,BT-20,> 0.512 µM
same,IC50,CAL-120,0.0441 µM
same,IC50,TE-441-T,0.0488 µM
same,IC50,U-698-M,0.0774 µM
same,IC50,U-251,< 0.002 µM
same,IC50,WSU-NHL,0.00554 µM
same,IC50,YAPC,0.0896 µM
same,IC50,CAPAN-1,0.0135 µM
same,IC50,CHL-1,0.0125 µM
same,IC50,CHP-126,0.0298 µM
same,IC50,CHP-212,0.003 µM
same,IC50,COLO-680N,0.018 µM
